Numbers after ± are expanded uncertainties.
Assay: xn = mol fraction of the nth substance listed
Conditions: Liquid, Pycnometric method

CCCCBr [1-bromobutane] + O=C=O
mass density [kg/m3]
Conditions	316.1 K	317.9 K
7540 kPa, x1 = 0.1495	–	964 ± 4
7770 kPa, x1 = 0.1495	–	967 ± 4
7950 kPa, x1 = 0.0989	–	850 ± 4
7990 kPa, x1 = 0.1495	–	970 ± 4
8090 kPa, x1 = 0.0989	–	853 ± 4
8230 kPa, x1 = 0.0683	–	777 ± 4
8230 kPa, x1 = 0.1495	–	974 ± 4
8330 kPa, x1 = 0.0461	–	703 ± 4
8340 kPa, x1 = 0.0683	–	780 ± 4
8370 kPa, x1 = 0.0461	–	705 ± 4
8370 kPa, x1 = 0.0989	–	859 ± 4
8450 kPa, x1 = 0.0245	–	491 ± 4
8450 kPa, x1 = 0.0461	–	712 ± 4
8450 kPa, x1 = 0.1495	–	977 ± 4
8460 kPa, x1 = 0.0245	–	493 ± 4
8480 kPa, x1 = 0.0245	–	499 ± 4
8490 kPa, x1 = 0.0683	–	786 ± 4
8500 kPa, x1 = 0.0245	–	506 ± 4
8510 kPa, x1 = 0.0245	593 ± 4	–
8530 kPa, x1 = 0.0245	–	512 ± 4
8550 kPa, x1 = 0.0245	–	518 ± 4
8550 kPa, x1 = 0.0461	–	721 ± 4
8560 kPa, x1 = 0.0245	604 ± 4	–
8570 kPa, x1 = 0.0245	–	525 ± 4
8600 kPa, x1 = 0.0245	–	532 ± 4
8620 kPa, x1 = 0.0245	615 ± 4	540 ± 4
8630 kPa, x1 = 0.0683	–	791 ± 4
8650 kPa, x1 = 0.0245	–	547 ± 4
8650 kPa, x1 = 0.0989	–	865 ± 4
8660 kPa, x1 = 0.1495	–	980 ± 4
8680 kPa, x1 = 0.0461	–	731 ± 4
8690 kPa, x1 = 0.0245	627 ± 4	555 ± 4
8720 kPa, x1 = 0.0245	–	563 ± 4
8770 kPa, x1 = 0.0245	–	571 ± 4
8780 kPa, x1 = 0.0245	639 ± 4	–
8790 kPa, x1 = 0.0683	–	797 ± 4
8800 kPa, x1 = 0.0245	–	579 ± 4
8820 kPa, x1 = 0.0245	–	583 ± 4
8840 kPa, x1 = 0.0245	–	588 ± 4
8840 kPa, x1 = 0.0461	–	741 ± 4
8870 kPa, x1 = 0.0245	–	589 ± 4
8880 kPa, x1 = 0.0245	652 ± 4	–
8890 kPa, x1 = 0.0245	–	597 ± 4
8920 kPa, x1 = 0.0245	–	601 ± 4
8940 kPa, x1 = 0.0683	–	802 ± 4
8950 kPa, x1 = 0.0989	–	871 ± 4
8960 kPa, x1 = 0.0245	–	608 ± 4
8960 kPa, x1 = 0.0461	–	748 ± 4
8990 kPa, x1 = 0.1495	–	984 ± 4
9000 kPa, x1 = 0.0245	665 ± 4	–
9100 kPa, x1 = 0.0461	–	756 ± 4
9130 kPa, x1 = 0.0683	–	808 ± 4
9150 kPa, x1 = 0.0245	683 ± 4	–
9250 kPa, x1 = 0.1495	–	987 ± 4
9270 kPa, x1 = 0.0461	–	764 ± 4
9300 kPa, x1 = 0.0989	–	877 ± 4
9330 kPa, x1 = 0.0683	–	814 ± 4
9340 kPa, x1 = 0.0245	694 ± 4	–
9530 kPa, x1 = 0.0461	–	774 ± 4
9540 kPa, x1 = 0.0683	–	820 ± 4
9560 kPa, x1 = 0.0245	709 ± 4	–
9580 kPa, x1 = 0.1495	–	990 ± 4
9670 kPa, x1 = 0.0989	–	884 ± 4
9770 kPa, x1 = 0.0683	–	826 ± 4
9810 kPa, x1 = 0.0461	–	785 ± 4
9850 kPa, x1 = 0.0245	725 ± 4	–
9860 kPa, x1 = 0.1495	–	993 ± 4
10030 kPa, x1 = 0.0683	–	832 ± 4
10050 kPa, x1 = 0.0989	–	890 ± 4
10160 kPa, x1 = 0.0461	–	796 ± 4
10200 kPa, x1 = 0.0245	741 ± 4	–
10240 kPa, x1 = 0.0245	743 ± 4	–
10240 kPa, x1 = 0.1495	–	997 ± 4
10290 kPa, x1 = 0.0245	746 ± 4	–
10310 kPa, x1 = 0.0683	–	838 ± 4
10350 kPa, x1 = 0.0245	750 ± 4	–
10500 kPa, x1 = 0.0989	–	897 ± 4
10560 kPa, x1 = 0.1495	–	1000 ± 4
10590 kPa, x1 = 0.0461	–	809 ± 4
10630 kPa, x1 = 0.0683	–	845 ± 4
10930 kPa, x1 = 0.1495	–	1004 ± 4
10940 kPa, x1 = 0.0683	–	850 ± 4
10950 kPa, x1 = 0.0989	–	903 ± 4
11060 kPa, x1 = 0.0461	–	821 ± 4
11270 kPa, x1 = 0.1495	–	1007 ± 4
11310 kPa, x1 = 0.0683	–	858 ± 4
11470 kPa, x1 = 0.0989	–	910 ± 4
11600 kPa, x1 = 0.0461	–	833 ± 4
11690 kPa, x1 = 0.0683	–	863 ± 4
11700 kPa, x1 = 0.1495	–	1011 ± 4
11870 kPa, x1 = 0.0683	–	867 ± 4
11890 kPa, x1 = 0.0461	–	839 ± 4

Source: the NIST ThermoML archive (doi:10.1021/je900387e)
